ChEMBL document CHEMBL1201862, “PubChem BioAssay data set” (2004)
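Five concentrations, 48 hours, 96-well plates. The concentration for 50% growth inhibition is given as GI50.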 Activity calls are given as the source filed them. Cut-off read from the data, not from the text of the source: active = GI50 up to about 1.1 µM and inactive = higher.

Assays:
Test in all cases: NCI tumour cell line growth inhibition, 48 h
786-0 = tested on: 786-0
A498 = tested on: A498
A549 = tested on: A549
ACHN = tested on: ACHN
CAKI-1 = tested on: CAKI-1
CCRF-CEM = tested on: CCRF-CEM
COLO 205 = tested on: COLO 205
DLD-1 = tested on: DLD-1
DMS-114 = tested on: DMS-114
DMS-273 = tested on: DMS-273
EKVX = tested on: EKVX
HCT-116 = tested on: HCT-116
HCT-15 = tested on: HCT-15
HL-60 = tested on: HL-60
HOP-62 = tested on: HOP-62
HT-29 = tested on: HT-29
IGROV-1 = tested on: IGROV-1
K562 = tested on: K562
KM-20L2 = tested on: KM-20L2
KM12 = tested on: KM12
LOX IMVI = tested on: LOX IMVI
LXFL 529 = tested on: LXFL 529
M14 = tested on: M14
M19-MEL = tested on: M19-MEL
MOLT-4 = tested on: MOLT-4
NCI-H226 = tested on: NCI-H226
NCI-H23 = tested on: NCI-H23
NCI-H460 = tested on: NCI-H460
NCI-H522 = tested on: NCI-H522
OVCAR-3 = tested on: OVCAR-3
OVCAR-4 = tested on: OVCAR-4
OVCAR-8 = tested on: OVCAR-8
RPMI-8226 = tested on: RPMI-8226
RXF 393 = tested on: RXF 393
RXF 631 = tested on: RXF 631
SF-268 = tested on: SF-268
SF-295 = tested on: SF-295
SF-539 = tested on: SF-539
SK-MEL-2 = tested on: SK-MEL-2
SK-MEL-5 = tested on: SK-MEL-5
SNB-19 = tested on: SNB-19
SNB-75 = tested on: SNB-75
SR = tested on: SR
SW-620 = tested on: SW-620
U-251 = tested on: U-251
UACC-257 = tested on: UACC-257
UACC-62 = tested on: UACC-62
UO-31 = tested on: UO-31
XF498 = tested on: XF498
HCC 2998 = tested on: HCC 2998
Malme-3M = tested on: Malme-3M
OVCAR-5 = tested on: OVCAR-5
SK-MEL-28 = tested on: SK-MEL-28
SN12C = tested on: SN12C
TK-10 = tested on: TK-10

CNS(=O)(=O)NNS(=O)(=O)c1ccc(F)cc1
GI50 (786-0): > 100 µM (inactive)
GI50 (A498): > 100 µM (inactive)
GI50 (A549): > 100 µM (inactive)
GI50 (ACHN): > 100 µM (inactive)
GI50 (CAKI-1): > 100 µM (inactive)
GI50 (CCRF-CEM): > 100 µM (inactive)
GI50 (COLO 205): > 100 µM (inactive)
GI50 (DLD-1): > 100 µM (inactive)
GI50 (DMS-114): > 100 µM (inactive)
GI50 (DMS-273): > 100 µM (inactive)
GI50 (EKVX): > 100 µM (inactive)
GI50 (HCT-116): > 100 µM (inactive)
GI50 (HCT-15): > 100 µM
GI50 (HL-60): > 100 µM (inactive)
GI50 (HOP-62): > 100 µM (inactive)
GI50 (HT-29): > 100 µM (inactive)
GI50 (IGROV-1): > 100 µM (inactive)
GI50 (K562): > 100 µM (inactive)
GI50 (KM-20L2): > 100 µM (inactive)
GI50 (KM12): > 100 µM (inactive)
GI50 (LOX IMVI): > 100 µM (inactive)
GI50 (LXFL 529): > 100 µM (inactive)
GI50 (M14): > 100 µM (inactive)
GI50 (M19-MEL): > 100 µM (inactive)
GI50 (MOLT-4): > 100 µM (inactive)
GI50 (NCI-H226): > 100 µM (inactive)
GI50 (NCI-H23): > 100 µM (inactive)
GI50 (NCI-H460): 59.3 µM (inactive)
GI50 (NCI-H522): > 100 µM (inactive)
GI50 (OVCAR-3): > 100 µM (inactive)
GI50 (OVCAR-4): > 100 µM (inactive)
GI50 (OVCAR-8): > 100 µM (inactive)
GI50 (RPMI-8226): > 100 µM (inactive)
GI50 (RXF 393): > 100 µM (inactive)
GI50 (RXF 631): > 100 µM (inactive)
GI50 (SF-268): > 100 µM (inactive)
GI50 (SF-295): > 100 µM (inactive)
GI50 (SF-539): > 100 µM (inactive)
GI50 (SK-MEL-2): > 100 µM (inactive)
GI50 (SK-MEL-5): > 100 µM (inactive)
GI50 (SNB-19): > 100 µM (inactive)
GI50 (SNB-75): > 100 µM (inactive)
GI50 (SR): > 100 µM (inactive)
GI50 (SW-620): > 100 µM (inactive)
GI50 (U-251): > 100 µM (inactive)
GI50 (UACC-257): > 100 µM (inactive)
GI50 (UACC-62): > 100 µM (inactive)
GI50 (UO-31): > 100 µM (inactive)
GI50 (XF498): > 100 µM (inactive)

COc1cc(C(C)c2cc3c(cc2OCCNC(=O)COc2cc4c(cc2C(C)c2cc(OC)c(OC)c(OC)c2)OCO4)OCO3)cc(OC)c1OC (configuration not stated)
GI50 (786-0): 49.8 µM (inactive)
GI50 (A498): > 100 µM (inactive)
GI50 (A549): > 100 µM (inactive)
GI50 (ACHN): 63.2 µM (inactive)
GI50 (CAKI-1): > 100 µM (inactive)
GI50 (CCRF-CEM): 30.5 µM (inactive)
GI50 (COLO 205): 48.2 µM (inactive)
GI50 (DLD-1): > 100 µM (inactive)
GI50 (DMS-114): 26.9 µM (inactive)
GI50 (DMS-273): 75.9 µM (inactive)
GI50 (EKVX): 29.6 µM (inactive)
GI50 (HCC 2998): > 100 µM (inactive)
GI50 (HCT-116): 87.9 µM (inactive)
GI50 (HCT-15): 87.3 µM
GI50 (HL-60): > 100 µM (inactive)
GI50 (HOP-62): 58.7 µM (inactive)
GI50 (HT-29): > 100 µM (inactive)
GI50 (IGROV-1): > 100 µM (inactive)
GI50 (K562): 73.1 µM (inactive)
GI50 (KM-20L2): > 100 µM (inactive)
GI50 (KM12): > 100 µM (inactive)
GI50 (LOX IMVI): 42.3 µM (inactive)
GI50 (LXFL 529): 44.2 µM (inactive)
GI50 (M14): 85.3 µM (inactive)
GI50 (M19-MEL): 80.2 µM (inactive)
GI50 (MOLT-4): 7.13 µM (inactive)
GI50 (Malme-3M): > 100 µM (inactive)
GI50 (NCI-H226): > 100 µM (inactive)
GI50 (NCI-H23): > 100 µM (inactive)
GI50 (NCI-H460): 22.2 µM (inactive)
GI50 (NCI-H522): 29.5 µM (inactive)
GI50 (OVCAR-3): 67.3 µM (inactive)
GI50 (OVCAR-4): > 100 µM (inactive)
GI50 (OVCAR-5): 6.38 µM (inactive)
GI50 (OVCAR-8): 49.5 µM (inactive)
GI50 (RXF 393): > 100 µM (inactive)
GI50 (RXF 631): 86.3 µM (inactive)
GI50 (SF-268): 50.4 µM (inactive)
GI50 (SF-295): > 100 µM (inactive)
GI50 (SF-539): > 100 µM (inactive)
GI50 (SK-MEL-28): > 100 µM (inactive)
GI50 (SK-MEL-2): > 100 µM (inactive)
GI50 (SK-MEL-5): > 100 µM (inactive)
GI50 (SN12C): 60 µM (inactive)
GI50 (SNB-19): > 100 µM (inactive)
GI50 (SNB-75): 3.09 µM (inactive)
GI50 (SR): > 100 µM (inactive)
GI50 (SW-620): > 100 µM (inactive)
GI50 (TK-10): > 100 µM (inactive)
GI50 (U-251): > 100 µM (inactive)
GI50 (UACC-257): 6.56 µM (inactive)
GI50 (UACC-62): 6.78 µM (inactive)
GI50 (UO-31): > 100 µM (inactive)
